Experimental data: US12390473B2, “Methods of treating tyrosine kinase inhibitor-induced diarrhea” (THE REGENTS OF THE UNIVERSITY OF CALIFORNIA, priority 2019, dated 2025)
pEC50: −log10 of the molar value.

What was measured:
[1] = tested on: basolateral membrane K+ channel(s); experiment: Basolateral K+ conductance: short-circuit current in apically permeabilized T84 cells with K+ gradient; type: cell-based, human; settings: apical membrane permeabilized
Procedure: (§1) T84 cells are mounted in Ussing chambers and bathed in symmetrical HCO3-buffered solution containing (in mM): 120 NaCl, 5 KCl, 1 MgCl2, 1 CaCl2, 10 D-glucose, 5 HEPES and 25 NaHCO3 (pH 7.4). The solutions are aerated with 95% O2/5% CO2 and maintained at 37° C. For measurement of basolateral K^+ conductance, a mucosal-to-serosal K^+ gradient is established using solutions containing K^+ as the major charge-carrying ion. The apical solution contained (in mM): 142.5 K-gluconate, 1.25 CaCl2, 0.40 MgSO4, 0.43 KH2PO4, 0.35 Na2HPO4, 10 HEPES, 5.6 D-glucose, pH 7.4. […] Short-circuit current is measured using an EVC4000 multichannel voltage clamp (World Precision Instruments, Sarasota, FL).
To measure basolateral membrane K^+ conductance directly, short-circuit current is measured in T84 cells following permeabilization of the apical membrane with amphotericin B in Cl^− and Na^+ free solutions and an apical-to-basolateral K^+ gradient (FIG. 7A).

Sprague-Dawley rats = experiment: Rat model of afatinib diarrhea (stool water content, intestinal histology); type: in vivo; settings: for reduction of the increased stool water content with afatinib: senicapoc 30 mg/kg oral twice daily; for inhibition of the increase in stool water content: days 3 and 4
Procedure: Female Sprague-Dawley rats (age 8-10 weeks) received oral afatinib (60 mg/kg oral) daily for 6 days. […] Rats are placed individually in metabolic cages and given access to water and food. Stool samples are collected for 5 hours. To measure stool water content, the stool samples are dried at 70° C. for 24 hours and water content is calculated as (wet weight−dry weight)/wet weight. Following initial dose-finding studies in mice and rats with several TKIs, using stool water content (from wet and dry weight measurement) as endpoint, a robust, short-term experimental animal model of afatinib diarrhea is established involving daily oral administration of 60 mg/kg afatinib in rats.

[2] = tested on: T84 human colonic epithelial cells; experiment: Short-circuit current in T84 cell monolayers, identical apical and basolateral solutions; type: cell-based; settings: for short-circuit current, TKI alone: 40 μM lapatinib, 20 μM gefitinib, before carbachol; for short-circuit current, TKI alone / effect on residual afatinib-induced carbachol response in BAPTA-treated cells: 20 μM afatinib; for effect on carbachol and forskolin induced current responses, without and with afatinib pretreatment: 30 μM clotrimazole, 10 μM senicapoc, 30 min prior to 100 μM carbachol then 10 μM forskolin; for effect of higher concentrations on the small residual current: data not shown; for effect on residual afatinib-induced carbachol response in BAPTA-treated cells: 10 μM inhibitor
Procedure: T84 cells (ATCC CCL-248) are cultured in a 1:1 mixture of DMEM/Ham's F-12 medium supplemented with 10% FBS, 100 U/mL penicillin and 100 μg/mL streptomycin. Cells are grown on Snapwell inserts (Costar Corning, Horseheads, NY) at 37° C. in 5% CO2/95% air and used 7-10 days after plating.
T84 cells are mounted in Ussing chambers and bathed in symmetrical HCO3-buffered solution containing (in mM): 120 NaCl, 5 KCl, 1 MgCl2, 1 CaCl2, 10 D-glucose, 5 HEPES and 25 NaHCO3 (pH 7.4). The solutions are aerated with 95% O2/5% CO2 and maintained at 37° C. For measurement of basolateral K^+ conductance, a mucosal-to-serosal K^+ gradient is established using solutions containing K^+ as the major charge-carrying ion. The apical solution contained (in mM): 142.5 K-gluconate, 1.25 CaCl2, 0.40 MgSO4, 0.43 KH2PO4, 0.35 Na2HPO4, 10 HEPES, 5.6 D-glucose, pH 7.4. […] For measurement of apical Cl^− conductance, a basolateral to apical Cl^− gradient is applied. The basolateral solution contained (in mM): 120 NaCl, 1 MgCl2, 1 CaCl2, 10 D-glucose, 5 HEPES and 25 NaHCO3 (pH 7.4). In the apical solution 120 mM NaCl is replaced by 5 mM NaCl and 115 mM Na-gluconate, and the basolateral membrane is permeabilized with 250 μg/ml amphotericin B (Pongkorpsakol P, Pathomthongtaweechai N, Srimanote P, Soodvilai S, Chatsudthipong V, and Muanprasat C. Inhibition of cAMP-activated intestinal chloride secretion by diclofenac: cellular mechanism and potential application in cholera. PLoS Negl Trop Dis. 2014; 8(9):e3119). Short-circuit current is measured using an EVC4000 multichannel voltage clamp (World Precision Instruments, Sarasota, FL). For intestinal short-circuit current measurement, CD1 mice are anesthetized with isoflurane. The ileum is removed, washed with ice-cold Krebs buffer, opened along the mesenteric border, and full-thickness layer is mounted in a micro-Ussing chamber (area 0.7 cm2, World Precision Instruments, Sarasota, FL). Hemichambers are filled with oxygenated Krebs-bicarbonate solution.
The effect of ErbB TKIs lapatinib, gefitinib, and afatinib on Cl^− secretory responses in T84 human colonic epithelial cells is tested. Short-circuit current is measured in T84 cell monolayers with identical solutions bathing the apical and basolateral surfaces.

[3] = molecular target: epithelial Ca2+-activated K+ channels (Homo sapiens, UniProt O15554); settings: reported; cited from earlier work
[4] = tested on: cAMP-activated K+ channels; experiment: Inhibition of forskolin-induced short-circuit current in T84 cells (FIG. 11B); type: cell-based, human; settings: 10 μM forskolin
Procedure: as §1

[5] = molecular target: T1, apical membrane CFTR Cl- channels (Homo sapiens, UniProt P13569); experiment: Apical Cl- conductance: short-circuit current in basolaterally permeabilized T84 cells with Cl- gradient; type: cell-based; settings: basolateral membrane permeabilized, 10 μM BPO-27
T1 construct: endogenous in cells; host or cells: T84 (ATCC CCL-248)

[6] = afatinib-treated rats, BPO-27 10 mg/kg ip twice daily, clotrimazole 100 mg/kg oral in two divided doses
[7] = 30 μM BAPTA-AM, 100 μM carbachol

Sequence of epithelial Ca2+-activated K+ channels (O15554 whole entry): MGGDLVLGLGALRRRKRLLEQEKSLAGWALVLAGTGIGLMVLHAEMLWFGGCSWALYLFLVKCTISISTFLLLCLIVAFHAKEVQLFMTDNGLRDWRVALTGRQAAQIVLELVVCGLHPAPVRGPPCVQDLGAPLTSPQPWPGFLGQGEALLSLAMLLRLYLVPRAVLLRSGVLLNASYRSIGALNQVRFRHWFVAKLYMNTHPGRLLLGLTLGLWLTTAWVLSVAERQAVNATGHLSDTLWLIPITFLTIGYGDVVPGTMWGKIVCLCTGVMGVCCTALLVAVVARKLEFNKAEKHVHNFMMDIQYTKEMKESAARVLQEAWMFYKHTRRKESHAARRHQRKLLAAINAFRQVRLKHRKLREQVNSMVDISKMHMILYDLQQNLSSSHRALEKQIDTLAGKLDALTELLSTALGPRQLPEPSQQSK
T1 sequence (P13569 whole entry): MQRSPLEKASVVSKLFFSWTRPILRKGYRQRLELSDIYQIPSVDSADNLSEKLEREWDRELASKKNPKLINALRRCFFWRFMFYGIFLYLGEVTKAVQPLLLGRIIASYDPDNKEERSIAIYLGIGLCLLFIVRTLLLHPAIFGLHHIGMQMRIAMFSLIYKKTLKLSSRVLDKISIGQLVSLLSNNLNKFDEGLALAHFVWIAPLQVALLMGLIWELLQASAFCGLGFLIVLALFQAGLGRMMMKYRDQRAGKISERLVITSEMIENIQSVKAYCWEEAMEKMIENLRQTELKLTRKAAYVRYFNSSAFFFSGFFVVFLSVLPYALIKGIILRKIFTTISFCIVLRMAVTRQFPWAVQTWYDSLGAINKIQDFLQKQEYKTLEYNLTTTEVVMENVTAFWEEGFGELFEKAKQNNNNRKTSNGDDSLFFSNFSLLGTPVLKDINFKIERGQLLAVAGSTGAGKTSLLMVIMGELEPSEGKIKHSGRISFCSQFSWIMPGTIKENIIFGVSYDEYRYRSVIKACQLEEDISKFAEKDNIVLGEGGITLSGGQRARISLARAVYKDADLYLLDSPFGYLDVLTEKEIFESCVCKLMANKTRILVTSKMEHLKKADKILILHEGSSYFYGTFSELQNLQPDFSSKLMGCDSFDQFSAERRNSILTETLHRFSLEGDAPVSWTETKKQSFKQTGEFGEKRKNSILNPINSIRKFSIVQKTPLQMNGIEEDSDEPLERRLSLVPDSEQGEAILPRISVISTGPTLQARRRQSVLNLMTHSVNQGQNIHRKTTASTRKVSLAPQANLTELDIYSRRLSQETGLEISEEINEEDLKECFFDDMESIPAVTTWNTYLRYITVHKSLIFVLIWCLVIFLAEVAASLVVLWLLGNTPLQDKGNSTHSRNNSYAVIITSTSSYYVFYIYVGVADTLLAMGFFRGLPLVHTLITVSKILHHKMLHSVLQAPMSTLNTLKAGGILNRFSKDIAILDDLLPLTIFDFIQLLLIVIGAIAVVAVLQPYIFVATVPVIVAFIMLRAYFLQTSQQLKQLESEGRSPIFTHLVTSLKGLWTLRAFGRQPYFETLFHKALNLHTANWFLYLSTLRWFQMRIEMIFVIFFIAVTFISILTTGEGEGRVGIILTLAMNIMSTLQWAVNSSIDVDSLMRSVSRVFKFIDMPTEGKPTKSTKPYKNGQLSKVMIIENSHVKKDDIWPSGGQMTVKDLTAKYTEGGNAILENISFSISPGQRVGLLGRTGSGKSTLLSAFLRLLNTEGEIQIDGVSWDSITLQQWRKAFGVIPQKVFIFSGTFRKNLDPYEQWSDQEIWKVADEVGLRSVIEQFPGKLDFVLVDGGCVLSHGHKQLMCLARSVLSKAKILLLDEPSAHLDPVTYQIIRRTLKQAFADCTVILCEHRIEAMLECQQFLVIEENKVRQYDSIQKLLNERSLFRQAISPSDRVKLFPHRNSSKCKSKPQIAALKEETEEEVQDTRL

Compound: CN(C)C/C=C/C(=O)Nc1cc2c(Nc3ccc(F)c(Cl)c3)ncnc2cc1O[C@H]1CCOC1 [afatinib]
- increase in carbachol response (basolateral K+ conductance) after pretreatment ([1]; 20 μM afatinib, 100 μM carbachol): ~2 fold
- intestinal histology (Sprague-Dawley rats; rats, 60 mg/kg afatinib oral daily): relatively minor pathology up to day 4, but greater epithelial disruption after that
- stool water content (Sprague-Dawley rats; rats, 60 mg/kg afatinib oral daily, days 4-5, baseline ~60%): > 80%
- intestinal histology (H&E) by day 6 (Sprague-Dawley rats; rats, 60 mg/kg afatinib oral, day 6): scattered epithelial disruption is seen in jejunum (black arrowheads) and villus atrophy in ileum
- intestinal histology (H&E) up to day 4 (Sprague-Dawley rats; rats, 60 mg/kg afatinib oral, up to day 4): minor injury up to day 4 with villus blunting in ileum
- pEC50 ([2]; Homo sapiens, added 25 min prior to carbachol, read-out: EC50 of amplification of carbachol-induced short-circuit current): ~5.30

Compound: CS(=O)(=O)CCNCc1ccc(-c2ccc3ncnc(Nc4ccc(OCc5cccc(F)c5)c(Cl)c4)c3c2)o1 [lapatinib]
- short-circuit current, TKI alone [2]: do not increase short-circuit current

Compound: Clc1ccccc1C(c1ccccc1)(c1ccccc1)n1ccnc1 [clotrimazole]
- effect on afatinib-amplified carbachol response (basolateral K+ conductance) ([1]; afatinib pretreatment, carbachol): largely blocked
- reduction of the increased stool water content with afatinib (Sprague-Dawley rats; [6]): significantly reduced
- inhibition of the increase in stool water content (Sprague-Dawley rats; afatinib-treated rats, clotrimazole 100 mg/kg oral in two divided doses): ~75%
- inhibition of epithelial Ca2+-activated K+ channels in patch-clamp studies [3]: fully inhibit
- effect on carbachol and forskolin induced current responses, without and with afatinib pretreatment [2]: largely prevents
- effect of higher concentrations on the small residual current [2]: does not inhibit the residual current

Compound: NC(=O)C(c1ccccc1)(c1ccc(F)cc1)c1ccc(F)cc1 [senicapoc]
- IC50 for inhibition of cAMP-dependent basolateral K+ conductance [4]: low micromolar
- reduction of the increased stool water content with afatinib (Sprague-Dawley rats; [6]): Significant, though lesser reduction
- effect on carbachol and forskolin induced current responses, without and with afatinib pretreatment [2]: largely prevents
- effect of higher concentrations on the small residual current [2]: does not inhibit the residual current

Compound: COc1cc2ncnc(Nc3ccc(F)c(Cl)c3)c2cc1OCCCN1CCOCC1 [gefitinib]
- short-circuit current, TKI alone [2]: do not increase short-circuit current

Compound: CCn1c(=O)[nH]c2ccccc21 [EBIO]
- effect of pretreatment on carbachol and forskolin current responses ([2]; EBIO 500 μM and/or afatinib 20 μM, 25 min prior to 100 μM carbachol then 10 μM forskolin): amplifies the carbachol and forskolin current responses

Compound: CC(=O)OCOC(=O)CN(CC(=O)OCOC(C)=O)c1ccccc1OCCOc1ccccc1N(CC(=O)OCOC(C)=O)CC(=O)OCOC(C)=O [BAPTA-AM]
- effect on carbachol response [2, 7]: largely prevents the carbachol response

Compound: Cn1c(=O)c2c(-c3ccccc3)n3c(c2n(C)c1=O)[C@H](c1ccc(Br)o1)Oc1ccc(C(=O)O)cc1-3 [BPO-27]
- effect on afatinib-amplified carbachol response (apical Cl- conductance) [5]: blocked
- inhibition of the increase in stool water content (Sprague-Dawley rats; afatinib-treated rats, BPO-27 10 mg/kg ip twice daily from 1 day after first afatinib dose): ~50%
- reduction of the increased stool water content with afatinib (Sprague-Dawley rats; [6]): significant reduction
- inhibitor effect on stool water content by day 5 (Sprague-Dawley rats; afatinib-treated rats, BPO-27 10 mg/kg ip twice daily, day 5): reduced inhibitor effect
- effect on afatinib augmentation of carbachol-induced current ([2]; 10 μM BPO-27, 20 μM afatinib, 100 μM carbachol): blocks the afatinib augmentation
- effect on carbachol-induced current without afatinib ([2]; 10 μM BPO-27, 100 μM carbachol): little effect
- effect on residual afatinib-induced carbachol response in BAPTA-treated cells [2, 7]: blocked

Compound: EGF: Epidermal growth factor (NSDSECPLSHDGYCLHDGVCMYIEALDKYACNCVVGYIGERCQYRDLKWWELR; UniProt P01133 971-1023, looked up)
- effect on Cl- secretion in response to carbachol ([2]; 100 ng/ml EGF 25 min prior to 100 μM carbachol): greatly reduces

Compound: O=C(O)c1ccc(/C=C2\SC(=S)N(c3cccc(C(F)(F)F)c3)C2=O)cc1 [CFTRinh-172]
- effect on residual afatinib-induced carbachol response in BAPTA-treated cells [2, 7]: blocked
